One series relates to canine atopic dermatitis. The protocol: […] Subjects were assessed at baseline and at weeks 2 and 4 of the trial, and every other week of the 1-year extension phase.
Subjects were assessed at baseline and at weeks 2 and 4.

A further series deals with ma104 cells. Briefly: adenosine release from ma104 cells. The class given is cell-based. The settings on record: 8 hours incubation. The protocol:
Various concentrations of aminopterin were incubated with ma104 cells for 8 hours, and the release of adenosine measured (FIG. 5).

Series [1] concerns the target T1, dihydrofolate reductase (DHFR) in the liver (Mus musculus, UniProt P00375).
T1 construct: from tissue; host or cells: liver (homogenate supernatant) of dosed mice
T1 sequence (P00375 1-187): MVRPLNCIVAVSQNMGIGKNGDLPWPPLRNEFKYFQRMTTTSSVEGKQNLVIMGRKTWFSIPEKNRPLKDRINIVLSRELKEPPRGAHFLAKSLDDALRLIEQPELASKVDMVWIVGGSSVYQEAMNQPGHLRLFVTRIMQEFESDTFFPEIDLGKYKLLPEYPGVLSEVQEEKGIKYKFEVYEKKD
In words: free DHFR in liver by 3H-MTX binding after weekly dosing. The format is in vivo, mice. On the procedure:
The animals that were treated in Example 1 were further analyzed with respect to the free dihydrofolate reductase (DHFR) available in their livers (i.e., amount of DHFR unbound, or not inhibited by either AMT or MTX) (FIG. 6). The following procedure was used. Portions of frozen liver were weighed and homogenized in three volumes of assay buffer (10 mM KPO4, 150 mM KCl, 1 mg/ml charcoal-treated BSA, 0.1 mg/ml NADPH, pH 7.5) on ice. After centrifugation for 30 min at 16000×G at 4° C., tissue extract was assayed for free DHFR by binding of 3H-MTX. Three serial 1:2 dilutions were made in assay buffer (total 100 μl/tube), starting with 10 μl extract for control samples (+190 μl buffer) or 100 μl for antifolate-treated samples. Approximately 2 pmoles of 3H-MTX (˜100,000 dpms) in 100 μl buffer was added to each tube and mixed by addition of another 100 μl buffer and agitation. After 30 mins on ice, unbound 3H-MTX was removed by addition of 200 μl dextran-coated activated charcoal (2.5% activated charcoal and 0.5% dextran MW 10,000) and centrifugation. Radioactivity in the supernatant (=bound 3H-MTX) was counted after careful removal from the charcoal pellet and addition of Ultima Gold scintillation fluid. A charcoal “blank” consisting of buffer, 3H-MTX and charcoal was subtracted from each value. Results were calculated by averaging the dpms bound/100 μl of the three dilutions, converting to picomoles MTX (specific activity 49,000 dpms/picomole, determined by competitive radioligand assay), and multiplying by 30 to give picomoles/gm tissue.

The next series concerns active and passive EAE. Briefly: rat EAE animal model of multiple sclerosis. The class given is in vivo. On the procedure: Using the rat EAE animal model of multiple sclerosis, a series of prophetic studies are performed wherein aminopterin is given to animals using both active and passive protocols for inducing EAE (Burton, Agents and Actions (1989) 27 (3/4): 351-355). In the active protocol, animals are intradermally injected with myelin basic protein (MBP), Freund's adjuvant and mycobacteria, whereas in the passive protocol separate donor rats are immunized actively and then 10-12 days after active immunization, donor splenocytes are collected and stimulated […] with MBP for 3 days, then 1−2×10^8 leukocytes injected iv into each irradiated (600 rads) recipient rat. Aminopterin at doses of 0.0005, 0.001, 0.002, 0.005, 0.008, 0.010, 0.050, 0.1 and 0.5 mg/kg are administered ip on the day after active or passive sensitization.

The test system of series [2] is chronic progressive multiple sclerosis. In words: randomized, placebo-controlled clinical trial in chronic progressive multiple sclerosis. The format is in vivo, human. On the procedure:
A prophetic randomized, double-blinded, placebo-controlled, clinical trial of low-dose, weekly, oral aminopterin is performed in 60 patients with clinically definite chronic progressive multiple sclerosis (MS) attending a referral-based outpatient MS clinic. Study patients are 21 to 60 years old with a disease duration of longer than 1 year. Patients' Expanded Disability Status Scale scores were 3.0 to 6.5 (ambulatory with moderate disability). Patients are first stratified by Expanded Disability Status Scale scores, 3.0 to 5.5 and 6.0 to 6.5, and then were randomized to receive aminopterin or placebo treatment. Treatment consists of weekly, oral, low-dose (1.0-2.0 mg) aminopterin or placebo for 2 years, followed by observation for as long as 1 year. A composite outcome measurement instrument is used and consists of (1) Expanded Disability Status Scale (EDSS), (2) ambulation index, (3) Box and Block Test, and (4) 9-Hole Peg Test. Failure of therapy is indicated by a designated change that is sustained for more than 2 months in one or more components of this composite measure.

The nature of series [3]: storage of aqueous compositions. The following applies: six months of storage; water converts aminopterin to folic acid. The class given is physicochemical. From the text: Because of their ease of administration, tablets and capsules represent the most advantageous oral dosage form in adults, in which case solid pharmaceutical carriers are employed. If desired, tablets may be coated by standard aqueous or nonaqueous techniques. The parenteral dosage form can consist of a sterile solution of the active ingredient, either in its free or salt form, in physiological buffer or sterile water. In addition, parenteral solutions can contain preservatives such as benzalkonium chloride, methyl- or propyl-paraben and chlorobutanol. Suitable pharmaceutical carriers are described in Remington's Pharmaceutical Sciences, a standard reference text in this field. […] Accordingly, such aqueous compositions are best stored desiccated and hydrated within several hours to several days prior to patient administration.

For another series, the system named is psoriasis. The following applies: 329 patients, schedules of the 1955 study; cited from earlier work.
The test system of series [4] is rheumatoid arthritis, psoriatic arthritis, uncomplicated psoriasis, and atopic dermatitis. The settings on record: 0.75-2 mg/day for approximately 1 week and greater; cited from earlier work.

Take `Nc1nc(N)c2nc(CNc3ccc(C(=O)N[C@@H](CCC(=O)O)C(=O)O)cc3)cnc2n1` [aminopterin, 4-amino-pteroyl-L-glutamic acid]: the “median improvement from baseline in PVAS score” value in the series on canine atopic dermatitis (5 dogs, oral 0.01 mg/kg/week, 4 weeks, range −4 to +2) is −4. The “median improvement from baseline in CADESI score” value with canine atopic dermatitis (5 dogs, oral 0.01 mg/kg/week, 4 weeks, range −11 to −91%) is on record as −59%. For the same molecule, the “median improvement from baseline in composite CADESI×pruritis score” value in the series on canine atopic dermatitis (5 dogs, oral 0.01 mg/kg/week, 4 weeks, range −97 to +24%) was −60%. In addition, the “clinical evidence of hematologic (CBC) or liver toxicity (LFTs)” value in the series with canine atopic dermatitis (dogs treated up to 20 weeks at 0.01 mg/kg/week) is reported as “no clinical evidence of hematologic (CBC) or liver toxicity (LFTs)”. Further, the “overall evaluation of efficacy by owners” value with canine atopic dermatitis (median score 2, range 1 to 4, oral 0.01 mg/kg/week, 4 weeks) is given as “fair (fair (25-50%))”. Further, in the series with canine atopic dermatitis (median score 2, range 1 to 5, oral 0.01 mg/kg/week, 4 weeks), the “overall evaluation of efficacy by clinicians” value was “fair (fair (25-50%))”. It took 0.5 nM to reach a half-maximal effect in the series with ma104 cells (EC50). The “available DHFR in the liver bound (inhibited)” value was “about 95%” in series [1] (1 day after the last of 4 sequential weekly doses), “about 83%” in series [1] (8 d after the last of 4 weekly doses) and “about 70%” in series [1] (22 d after the last of 4 weekly doses). Also, the “persistence of inhibition after the single dose” value in the series on active and passive EAE (active or passive EAE) is “up to 14 days”. In the series on active and passive EAE (sensitized actively or passively), the “dose-response over the range of doses” value is “clear dose-response”. Further, in the series on active and passive EAE (single ip dose (0.0005-0.5 mg/kg) day after active sensitization, one or more of the doses), the “inhibition of the onset of active EAE” value is reported as “greater than 80%”. The “inhibition of the onset of passive EAE” value in the series on active and passive EAE (single ip dose (0.0005-0.5 mg/kg) day after passive sensitization, one or more of the doses) is recorded as “greater than 80%”. The “toxicity in the treatment group” value in series [2] (weekly oral 1.0-2.0 mg for 2 years) is “absence of clinically significant toxicity”. The “progression of impairment (EDSS, ambulation index, Box and Block Test, 9-Hole Peg Test or composite)” value in series [2] (weekly oral 1.0-2.0 mg for 2 years vs placebo) was “Significantly less progression of impairment”. The “stability of parenteral, oral liquid or other aqueous compositions” value in series [3] is given as “accumulate folic acid to undesirable levels”. The “overall incidence of toxicity” value in the series with psoriasis was 21%. The toxic reactions result in series [4] is given as “the majority of patients developed toxic reactions”.

As a reminder, the EC50 is the concentration that produces a half-maximal response. High values mean a need for much substance, low ones an effect from little substance.

(Values after patent publication US8129383B2, “Aminopterin dosage forms and methods for inflammatory disorders” (Aminopterin LLC, priority 2005, dated 2012).)
